Legend:
Vibrio vulnificus [1] = assay: Mouse infection with Vibrio vulnificus, survival; format: in vivo; settings: 1.4 mg/kg mixed with bacteria, subcutaneous, ICR female mice, vs DMSO
Procedure: In order to determine whether or not CM2660 also decreases the virulence of Vibrio vulnificus in vivo using 7-week-old ICR female mice, Vibrio vulnificus cultured at A600=0.5 at 30° C. was prepared. This was mixed with DMSO (10%) or CM2660 (1.4 mg/kg of mouse body weight) and the resulting mixture was subcutaneously injected into the back of mice anesthetized with isoflurane. In addition, only CM2660 was injected subcutaneously in order to determine the in-vivo toxicity of CM2660 (FIG. 22). FIG. 22 is a graph showing the results of observation of the expression of in-vivo toxicity of Vibrio vulnificus after injecting CM2660 into mice.

INT-407 cells = assay: In-vitro cytotoxicity, LDH release assay; format: cell-based, human; settings: 1 to 500 μM, 3 hours, 5% Triton-X 100 = 100%
Procedure: In order to investigate the in-vitro cytotoxicity of CM2660, human epithelial cells, INT-407 cells were treated with Vibrio vulnificus (control) of MOI 10, and 1 to 500 μM of CM2660 or DMSO. After 3 hours, LDH release assay was performed and cytotoxicity was measured (FIG. 21). […] Cytotoxicity (%) was calculated with respect to the cytotoxicity obtained through treatment of 5% Triton-X 100 as 100%.

HlyU [2] = assay: Amount of HlyU protein in cells of Vibrio vulnificus; format: cell-based; settings: various concentrations, added at A600=0.2, harvested at A600=0.5, vs 2% DMSO
Procedure: In order to determine the mechanism by which the HlyU inhibitor CM2660 inhibited the activity of HlyU, Vibrio vulnificus was cultured at 30° C. and treated with various concentrations of CM2660 at A600=0.2. […] Then, the cell solution was centrifuged at A600=0.5, indicating the time when the intracellular amount of HlyU was maximized, and only the cell portion (pellet) was recovered. The recovered cells were chemically lysed to determine the amount of HlyU in each sample (FIG. 9).

HlyU [3] = biological target: T1, HlyU (Vibrio vulnificus, UniProt A0A3Q0L222); assay: Vibrio reporter strain, pKK1305 (PrtxA-lux, activated by HlyU) in wild-type V. vulnificus; format: cell-based; settings: Compound Group I; HlyU activity (RLU, DMSO = 100%), 30° C.
T1 sequence (A0A3Q0L222 1-98): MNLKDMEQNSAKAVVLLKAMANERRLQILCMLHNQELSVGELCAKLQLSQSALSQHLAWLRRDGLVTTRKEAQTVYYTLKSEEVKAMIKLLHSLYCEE
Procedure: Meanwhile, verification experiments using the Vibrio reporter strain were also conducted so as to exclude false positive results. It was identified that the effect of the compound was not limited only to E. coli using Vibrio vulnificus, each having the reporter plasmid (pZW1608) inhibited by HlyU, which was used for the E. coli reporter strain, and the plasmid (pKK1305) in which the promoter of the rtxA gene activated by HlyU is cloned in front of the bioluminescence operon.
The constructed wild-type Vibrio reporter strain was treated with sample compounds and cultured at 30° C., and cell growth and luminescence were measured in the same manner as the E. coli strain screening (FIG. 3 and FIG. 4).
In order to identify whether or not a specific structure of CM2660 has a significant effect on HlyU inhibition, the effect of HlyU inhibition by the compound CM2660 and derivatives thereof, “Compound Group I” (FIG. 5) was verified. For the purpose, the pKK1305 plasmid prepared in Example 1 was conjugated to the wild-type Vibrio vulnificus, and the Vibrio reporter strain (pKK1305 in wild-type V. vulnificus) thus produced was treated with various concentrations of the derivative compounds.
(§1) While culturing at 30° C., the growth of the reporter strain and the degree of bioluminescence thereof were measured in the same manner as in Example 1, and the RLU was calculated. The RLU of the DMSO-treated control group was expressed as 100% HlyU activity. HlyU activity was plotted according to the concentration of the derivative compound, and EC50 (half maximal effective concentration) was calculated using GraphPad Prism 7.0 (GraphPad Software, San Diego, Calif.) (FIG. 6, Table 2).

Vibrio alginolyticus = assay: Cytotoxicity of Vibrio alginolyticus; format: cell-based; settings: CM2660 at different concentrations
Vibrio vulnificus [4] = assay: Growth of Vibrio vulnificus; format: cell-based; settings: 20-500 μM CM2660
Procedure: as §1
Therefore, Vibrio vulnificus was treated with various concentrations of CM2660, and the growth of Vibrio vulnificus was observed (FIG. 20).

HlyU [5] = biological target: T1, HlyU; assay: High-throughput screening with E. coli reporter strain (pKK1306 + pZW1608 lux reporter); format: cell-based
Excerpt: Meanwhile, to perform E. coli reporter strain construction and high-throughput screening, a pKK1306 plasmid cloned to induce wild-type hlyU genes by arabinose was constructed. The reporter plasmid is pZW1608, in which the promoter of the VVMO6_00539 gene, expression of which is directly repressed by HlyU, is cloned in front of the bioluminescence operon (lux operon). These two plasmids were simultaneously transformed into E. coli DH5 to construct an E. coli reporter strain (FIG. 1). FIG. 1 is a schematic diagram illustrating the strategy used to screen selective inhibitors of HlyU.
For the screening, approximately 8400 low-molecular-weight compounds were obtained from Korea Compound Bank and used in this experiment. […] When the absorbance at 600 nm (A600) of the culture solution, which was cultured at 37° C., reached 0.5, 100 μl of the culture solution was transferred to a 96-well black plate. […] While culturing at 37° C., the growth and bioluminescence of the reporter strain were measured using an Infinite™ M200 microplate reader (Tecan, Mannedorf, Switzerland). The relative luminescence unit (RLU) was calculated through normalization by division of the measured luminescence value by the absorbance. RLU=luminescence/absorbance [Equation 1] […]

Compound: O=C(C#Cc1ccccc1)Nc1scc2c1c(=O)oc1ccccc12 [CM2660, N-(4-oxo-4H-thieno[3,4-c]chromen-3-yl)-3-phenylprop-2-ynamide]
- viability (survival) of mice infected with Vibrio vulnificus (Vibrio vulnificus [1]): significantly higher
- cytotoxicity to INT-407 cells (INT-407 cells): almost no cytotoxicity
- amount of HlyU in the cells (HlyU [2]): no significant difference
- EC50 (HlyU [3]): 30.9 µM
- cytotoxicity of Vibrio alginolyticus (Vibrio alginolyticus): reduced in a concentration-dependent manner
- in-vitro growth of Vibrio vulnificus (Vibrio vulnificus [4]): no significant effect
- bioluminescence of E. coli reporter strains (HlyU [5]; 20 μM compound, 0.0002% arabinose, vs DMSO): significantly increased
- HlyU inhibitory effect among the seven screened compounds (HlyU [5]; Example 1, E. coli and Vibrio reporter strains): best effect
